Assay results published in the CheMixHub ionic liquid set.
± gives the uncertainty stated by the source.

Test: xn = mol fraction of the nth substance listed

CO + CS(=O)(=O)[O-].C[N+](C)(CCO)CCO
101 kPa, x2 = 0
Conditions	viscosity [mPa·s]
298.15 K	0.576 ± 0.038
303.15 K	0.539 ± 0.035
308.15 K	0.506 ± 0.033
313.15 K	0.477 ± 0.031
318.15 K	0.453 ± 0.03
323.15 K	0.43 ± 0.03

CC[n+]1ccn(C)c1.O=S(=O)([N-]S(=O)(=O)C(F)(F)F)C(F)(F)F + CCOC(C)=O
100 kPa
Conditions	viscosity [mPa·s]
303.15 K, x2 = 0.2977	12.85 ± 0.43
303.15 K, x2 = 0.3962	9.43 ± 0.32
303.15 K, x2 = 0.5961	4.75 ± 0.3
303.15 K, x2 = 0.7974	1.97 ± 0.3
303.15 K, x2 = 0.8979	0.88 ± 0.2
308.15 K, x2 = 0	23.29 ± 0.49
308.15 K, x2 = 0.2977	11.24 ± 0.42
313.15 K, x2 = 0.3962	7.36 ± 0.31
313.15 K, x2 = 0.5051	5.15 ± 0.31
318.15 K, x2 = 0.1858	11.49 ± 0.42
318.15 K, x2 = 0.3962	6.49 ± 0.31
318.15 K, x2 = 0.5051	4.36 ± 0.3
318.15 K, x2 = 0.8979	0.73 ± 0.2
323.15 K, x2 = 0.6909	2.05 ± 0.3

CC[n+]1ccccc1.[Cl-] + CCCC[n+]1ccccc1.[Br-]
viscosity [mPa·s], 101 kPa
Conditions	x1 = 0.118	x1 = 0.197	x1 = 0.318	x1 = 0.384	x1 = 0.492	x1 = 0.585	x1 = 0.686	x1 = 0.81	x1 = 0.902
373.1 K	–	–	–	61 ± 4.5	54.1 ± 4	48.8 ± 3.5	43.7 ± 3.1	38 ± 2.5	–
378.1 K	–	–	53.6 ± 4	50.2 ± 4.1	44.7 ± 3.5	40.6 ± 3.1	36.5 ± 2.7	32 ± 2.3	–
383.1 K	53.8 ± 4.1	49.7 ± 3.8	44 ± 3.6	41.4 ± 3.3	37.1 ± 2.9	33.8 ± 2.5	30.6 ± 2.2	27.1 ± 1.9	–
388.1 K	44 ± 3.7	40.8 ± 3.3	36.4 ± 2.9	34.3 ± 2.6	31 ± 2.3	28.4 ± 2.1	25.8 ± 1.8	23 ± 1.5	20.9 ± 1.3
393.1 K	36.2 ± 2.9	33.7 ± 2.6	30.3 ± 2.3	28.6 ± 2.1	26 ± 1.9	24 ± 1.7	21.9 ± 1.5	19.7 ± 1.3	18 ± 1.1
398.1 K	30 ± 2.3	28.1 ± 2.1	25.4 ± 1.8	24.1 ± 1.7	22 ± 1.5	20.4 ± 1.4	18.8 ± 1.2	17 ± 1	15.59 ± 0.93
403.1 K	25.1 ± 1.8	23.6 ± 1.7	21.5 ± 1.5	20.5 ± 1.4	18.8 ± 1.2	17.5 ± 1.1	16.19 ± 0.99	14.73 ± 0.87	13.59 ± 0.78
408.1 K	21.2 ± 1.5	20.1 ± 1.4	18.4 ± 1.2	17.5 ± 1.1	16.2 ± 1	15.19 ± 0.91	14.08 ± 0.82	12.9 ± 0.72	11.96 ± 0.65
413.1 K	18.2 ± 1.2	17.2 ± 1.1	15.87 ± 0.97	15.16 ± 0.91	14.1 ± 0.82	13.27 ± 0.75	12.36 ± 0.68	11.39 ± 0.6	10.58 ± 0.55
418.1 K	15.69 ± 0.95	14.92 ± 0.89	13.82 ± 0.8	13.25 ± 0.75	12.37 ± 0.68	11.7 ± 0.62	10.93 ± 0.57	10.12 ± 0.51	9.43 ± 0.46
423.1 K	13.69 ± 0.78	13.06 ± 0.73	12.15 ± 0.66	11.69 ± 0.62	10.96 ± 0.56	10.4 ± 0.52	9.75 ± 0.48	9.08 ± 0.43	8.49 ± 0.39
428.1 K	12.07 ± 0.64	11.55 ± 0.6	10.79 ± 0.54	10.4 ± 0.52	9.79 ± 0.47	9.32 ± 0.44	8.77 ± 0.4	8.21 ± 0.36	7.68 ± 0.33
433.1 K	10.76 ± 0.53	10.32 ± 0.5	9.68 ± 0.45	9.35 ± 0.43	8.83 ± 0.4	8.44 ± 0.37	7.96 ± 0.34	7.48 ± 0.31	7.02 ± 0.28
438.1 K	9.69 ± 0.44	9.31 ± 0.41	8.77 ± 0.38	8.48 ± 0.36	8.04 ± 0.33	7.7 ± 0.31	7.29 ± 0.29	6.88 ± 0.26	6.46 ± 0.24
443.1 K	8.82 ± 0.39	8.5 ± 0.37	8.03 ± 0.34	7.78 ± 0.32	7.39 ± 0.3	7.11 ± 0.29	6.74 ± 0.25	6.38 ± 0.25	6 ± 0.22

ClCCl + CCCC[n+]1ccn(C)c1.F[B-](F)(F)F
298.15 K
Conditions	electrical conductivity, 101 kPa [S/m]	viscosity, 101 kPa [mPa·s]	viscosity, 101.33 kPa [mPa·s]
x1 = 0.1	0.265 ± 0.032	85 ± 18	–
x1 = 0.1923	0.348 ± 0.042	63.1 ± 6.3	–
x1 = 0.2841	0.45 ± 0.054	46.1 ± 4.6	–
x1 = 0.3884	0.592 ± 0.071	31.2 ± 3.1	–
x1 = 0.4507	–	–	14.3 ± 1.1
x1 = 0.4878	0.772 ± 0.093	20 ± 2.1	–
x1 = 0.5882	0.99 ± 0.12	12.3 ± 1.3	–
x1 = 0.6897	1.18 ± 0.14	6.73 ± 0.81	–
x1 = 0.756	1.26 ± 0.15	4 ± 0.53	–
x1 = 0.8395	1.18 ± 0.14	1.96 ± 0.27	–

CC[n+]1ccccc1.[Cl-] + CCCC[n+]1ccccc1.[Cl-]
101 kPa
Conditions	viscosity [mPa·s]
388.1 K, x1 = 0.804	23.2 ± 1.6
393.1 K, x1 = 0.504	27.4 ± 1.7
393.1 K, x1 = 0.804	19.8 ± 1.3
398.1 K, x1 = 0.504	23.4 ± 1.5
398.1 K, x1 = 0.702	18.5 ± 1.2
398.1 K, x1 = 0.804	17 ± 1.1
403.1 K, x1 = 0.804	14.67 ± 0.89
408.1 K, x1 = 0.198	22.8 ± 1.3
413.1 K, x1 = 0.198	19.7 ± 1.2
413.1 K, x1 = 0.795	11.06 ± 0.62
418.1 K, x1 = 0.504	13.42 ± 0.72
423.1 K, x1 = 0.388	12.25 ± 0.67
428.1 K, x1 = 0.702	8.33 ± 0.4
428.1 K, x1 = 0.795	7.76 ± 0.37
433.1 K, x1 = 0.597	8.38 ± 0.38
438.1 K, x1 = 0.302	9.51 ± 0.43
438.1 K, x1 = 0.702	6.8 ± 0.29
443.1 K, x1 = 0.504	8.1 ± 0.5
443.1 K, x1 = 0.804	6.06 ± 0.24

CC[n+]1ccn(C)c1.F[B-](F)(F)F + CC[n+]1ccn(C)c1.O=S(=O)([N-]S(=O)(=O)C(F)(F)F)C(F)(F)F
100 kPa, x2 = 0
Conditions	electrical conductivity [S/m]	viscosity [mPa·s]
243.15 K	0.026 ± 0.003	–
248.15 K	0.043 ± 0.005	–
253.15 K	0.066 ± 0.007	308 ± 35
258.15 K	0.096 ± 0.01	–
263.15 K	0.135 ± 0.014	152 ± 16
268.15 K	0.184 ± 0.019	–
273.15 K	0.243 ± 0.025	85.2 ± 8.6
278.15 K	0.313 ± 0.032	–
283.15 K	0.395 ± 0.04	52.4 ± 5.2
288.15 K	0.488 ± 0.049	–
293.15 K	0.594 ± 0.06	34.6 ± 3.5
298.15 K	0.712 ± 0.072	–
303.15 K	–	24.2 ± 2.4
313.15 K	–	17.8 ± 1.8
323.15 K	–	13.5 ± 1.4
333.15 K	–	10.6 ± 1.1
